Consider 29 molecules from publication PMC5681660, “Reduced hepatitis B and D viral entry using clinically applied drugs as novel inhibitors of the bile acid transporter NTCP” (Scientific Reports, 2017).

Molecules are shown by their SMILES. Where a name gives a salt, the structure may show the parent alone. Read-outs that look alike come from different tables or passages of the source.

In assay [1] the target is T1, human NTCP (Homo sapiens, UniProt Q14973).
T1 sequence (Q14973 1-349): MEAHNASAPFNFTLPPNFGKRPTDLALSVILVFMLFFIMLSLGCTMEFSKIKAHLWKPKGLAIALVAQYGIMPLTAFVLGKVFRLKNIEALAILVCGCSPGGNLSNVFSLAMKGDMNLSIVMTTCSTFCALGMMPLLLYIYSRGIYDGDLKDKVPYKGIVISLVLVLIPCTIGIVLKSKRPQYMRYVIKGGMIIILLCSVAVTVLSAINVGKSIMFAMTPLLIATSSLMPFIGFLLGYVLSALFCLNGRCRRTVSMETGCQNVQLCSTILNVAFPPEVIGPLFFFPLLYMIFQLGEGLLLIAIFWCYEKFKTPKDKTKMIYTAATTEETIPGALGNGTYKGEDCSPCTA
In words: Screening fluorescent competitive Myrcludex B-FITC binding assay (96-well, 10 µM drug).

Assay [2] has as its target T1, human NTCP. The experiment in a line: Screening taurocholate uptake assay (96-well, [14C]taurocholate, 10 µM drug).
[3] abbreviates: Prestwick library screen, 10 µM drug, B-score of Myrcludex B-FITC binding.
Setting [4] is: Prestwick library screen, 10 µM drug, B-score of taurocholate uptake.
The mark [5] stands for this setting: combined ranking from functional and binding assay B-scores.
Where [6] appears, read: Prestwick library screen, Myrcludex B-FITC binding, 10 µM drug.
The mark [7] stands for this setting: Prestwick library screen, taurocholate uptake, 10 µM drug.
Setting [8] is: ranking score beside the functional and binding assay B-scores of the screen.
[9] abbreviates: screen, 10 µM drug, Myrcludex B-FITC binding.
[10] abbreviates: combined ranking from functional and binding screening assays.
Where [11] appears, read: screen, 10 µM drug, taurocholate uptake.

As to `CS(=O)(=O)O.OC(CCN1CCCCC1)(c1ccccc1)c1ccccc1` [Pridinol methanesulfonate salt], the B-score binding assay on human NTCP [1] (setting [3]) is 0.059. At human NTCP [2] (setting [4]), this molecule returned a B-score functional assay of 1.063. The Ranking score at human NTCP [2] (setting [5]) came out at 875.882.

In turn, `C[N+]1(C)CCC(OC(=O)C(O)(c2ccccc2)C2CCCC2)C1` (stereo not drawn) [Glycopyrrolate] returned a B-score binding assay at human NTCP [1] (setting [6]) of 0.143. The same molecule yielded a B-score functional assay at human NTCP [2] (setting [7]) of 0.403. Besides, on human NTCP [2] (setting [8]), the Ranking score was determined as 820.625.

`CN(C)[C@@H]1C(O)=C(C(N)=O)C(=O)[C@@]2(O)C(O)=C3C(=O)c4c(O)ccc(Cl)c4[C@@](C)(O)[C@H]3C[C@@H]12` [Chlortetracycline hydrochloride] yielded a B-score binding assay on human NTCP [1] (setting [6]) of 0.571. Besides, the B-score functional assay at human NTCP [2] (setting [7]) is -0.045. This molecule also showed a Ranking score on human NTCP [2] (setting [8]) of 738.786.

For the molecule `CCCc1nn(C)c2c(=O)[nH]c(-c3cc(S(=O)(=O)N4CCN(C)CC4)ccc3OCC)nc12` [Sildenafil], the B-score binding assay on human NTCP [1] (setting [6]) was 0.383. Moreover, the B-score functional assay at human NTCP [2] (setting [7]) was determined as 0.011. The same molecule registered a Ranking score at human NTCP [2] (setting [8]) of 755.751.

Regarding `O=C1[C@H]2CCCC[C@H]2C(=O)N1CCCCN1CCN(c2nsc3ccccc23)CC1` [Perospirone], the B-score binding assay on human NTCP [1] (setting [3]) is 1.438. In addition, at human NTCP [2] (setting [4]), the B-score functional assay is reported as 0.093. Also, the Ranking score on human NTCP [2] (setting [5]) came out at 917.333.

Turning to `CCn1cc(C(=O)O)c(=O)c2cnc(N3CCNCC3)nc21` [Pipemidic acid], at human NTCP [1] (setting [6]), the B-score binding assay stood at 0.325. In addition, the B-score functional assay at human NTCP [2] (setting [7]) is given as -0.002. The molecule further had a Ranking score at human NTCP [2] (setting [8]) of 736.261.

Regarding `CCOc1ccccc1OCC1CNCCO1` (stereo not drawn) [Viloxazine hydrochloride], on human NTCP [1], the B-score binding assay is listed as -0.914. Besides, at human NTCP [2], the B-score functional assay is recorded as -1.513 and the Ranking score stood at 214.483.

For `C[C@@H]1[C@H](O)[C@@H](C)/C=C/C=C/CC/C=C/C=C/C=C/C=C/C(O[C@H]2O[C@H](C)[C@@H](O)[C@H](N)[C@@H]2O)CC2O[C@](O)(CC(O)C(O)CCC(O)CC(O)CC(O)CC(=O)O[C@H]1C)CC(O)C2C(=O)O` (stereo partly drawn) [Nystatine], on human NTCP [1] (setting [6]), the B-score binding assay came to 3.8. Besides, at human NTCP [2] (setting [7]), the B-score functional assay is listed as -0.141. This molecule displayed a Ranking score at human NTCP [2] (setting [8]) of 804.798.

Consider `CN1CCN(CCCN2c3ccccc3Sc3ccc(S(=O)(=O)N(C)C)cc32)CC1.CS(=O)(=O)O.CS(=O)(=O)O` [Thioproperazine dimesylate], for which, on human NTCP [1] (setting [3]), the B-score binding assay worked out at 1.771. Moreover, the B-score functional assay on human NTCP [2] (setting [4]) came out at 0.683. Besides, the Ranking score on human NTCP [2] (setting [5]) was found to be 1068.06.

Molecule `Cc1ncc(CO)c(CO)c1O` [Pyridoxine hydrochloride] displayed a B-score binding assay on human NTCP [1] (setting [3]) of 1.062. The B-score functional assay on human NTCP [2] (setting [4]) is on record as 0.632. On human NTCP [2] (setting [5]), the Ranking score came out at 1004.23.

On to `COc1ccnc(C[S+]([O-])c2nc3ccc(OC(F)F)cc3[nH]2)c1OC` (stereo not drawn) [Pantoprazole sodium], for which, on human NTCP [1], the B-score binding assay came out at 0.377. Further, at human NTCP [2], the B-score functional assay was 0.443 and the Ranking score is 878.449.

At human NTCP [1] (setting [6]), `CCN1CCN(c2cc3c(cc2F)c(=O)c(C(=O)O)cn3C2CC2)CC1` [Enrofloxacin] showed a B-score binding assay of 0.083. The B-score functional assay on human NTCP [2] (setting [7]) was determined as 0.028. This molecule showed a Ranking score at human NTCP [2] (setting [8]) of 706.109.

As to `NC1CCN(c2c(F)cc3c(=O)c(C(=O)O)cn(C4CC4)c3c2Cl)C1` (stereo not drawn) [Clinafloxacin], the B-score binding assay on human NTCP [1] (setting [9]) is reported as -1.253. On human NTCP [2] (setting [10]), the Ranking score stood at 295.014. Also, the B-score functional assay on human NTCP [2] (setting [11]) is reported as -0.349.

At human NTCP [1] (setting [6]), `Cn1c(=O)c2c(ncn2CCO)n(C)c1=O` [Etofylline] had a B-score binding assay of 0.258. In addition, the B-score functional assay on human NTCP [2] (setting [7]) is 0.319. Moreover, the Ranking score on human NTCP [2] (setting [8]) amounted to 831.39.

Take `Cn1c(=O)c2c(ncn2C)n(C)c1=O` [Caffeine]: the B-score binding assay at human NTCP [1] (setting [6]) is given as 0.154. The molecule also returned a B-score functional assay at human NTCP [2] (setting [7]) of 0.363. Moreover, the Ranking score on human NTCP [2] (setting [8]) was 818.709.

In turn, `Cc1cn([C@H]2C=C[C@@H](CO)O2)c(=O)[nH]c1=O` [Stavudine] displayed a B-score binding assay at human NTCP [1] (setting [3]) of 0.431. At human NTCP [2] (setting [4]), this molecule returned a B-score functional assay of 0.865. Further, the Ranking score on human NTCP [2] (setting [5]) stood at 957.909.

For the molecule `COc1ccc2c3c1O[C@H]1C[C@@H](O)C=C[C@@]31CCN(C)C2` [Galanthamine hydrobromide], the B-score binding assay on human NTCP [1] (setting [6]) is 0.486. At human NTCP [2] (setting [7]), this molecule had a B-score functional assay of 0.072. Besides, the Ranking score on human NTCP [2] (setting [8]) came to 808.114.

At human NTCP [1] (setting [3]), `Fc1ccc([C@@H]2CCNC[C@H]2COc2ccc3c(c2)OCO3)cc1` [Paroxetine Hydrochloride] registered a B-score binding assay of 1.07. This molecule also had a B-score functional assay on human NTCP [2] (setting [4]) of 0.185. For the same molecule, the Ranking score on human NTCP [2] (setting [5]) amounted to 918.273.

Molecule `CC[C@H](C)C(=O)O[C@H]1CCC=C2C=C[C@H](C)[C@H](CC[C@@H]3C[C@@H](O)CC(=O)O3)[C@H]21` [Mevastatin] registered a B-score binding assay on human NTCP [1] (setting [9]) of 1.164. For the same molecule, the Ranking score at human NTCP [2] (setting [10]) turned out to be 355.331. Besides, at human NTCP [2] (setting [11]), the B-score functional assay is -2.175.

Turning to `Cc1cc(C(C)(C)C)c(O)c(C)c1CC1=NCCN1` [Oxymetazoline hydrochloride], on human NTCP [1] (setting [3]), the B-score binding assay is on record as 2.755. The B-score functional assay at human NTCP [2] (setting [4]) came to 0.493. Besides, the Ranking score on human NTCP [2] (setting [5]) is recorded as 1060.78.

Take `CC(=O)/N=c1/sc(S(N)(=O)=O)nn1C` [Methazolamide]: on human NTCP [1] (setting [3]), the B-score binding assay is -0.041. At human NTCP [2] (setting [4]), this molecule gave a B-score functional assay of 2.368. The Ranking score at human NTCP [2] (setting [5]) is 849.129.

In the case of `O=C([O-])[C@H]1/C(=C/CO)O[C@@H]2CC(=O)N21.[K+]` [Clavulanate potassium salt], the B-score binding assay on human NTCP [1] (setting [3]) came out at 2.079. On human NTCP [2] (setting [4]), this molecule returned a B-score functional assay of 0.008. The Ranking score on human NTCP [2] (setting [5]) amounted to 886.007.

On human NTCP [1] (setting [6]), `CCC(=O)O[C@]1(C(=O)SCF)[C@H](C)C[C@H]2[C@@H]3C[C@H](F)C4=CC(=O)C=C[C@]4(C)[C@@]3(F)[C@@H](O)C[C@@]21C` [Fluticasone propionate] had a B-score binding assay of 0.947. Besides, the B-score functional assay on human NTCP [2] (setting [7]) stood at 0.021. At human NTCP [2] (setting [8]), this molecule displayed a Ranking score of 830.535.

Regarding `CCCNC(C)C(=O)Nc1ccccc1C` (stereo not drawn) [Prilocaine hydrochloride], the B-score binding assay on human NTCP [1] (setting [9]) was -1.737. Also, at human NTCP [2] (setting [10]), the Ranking score amounted to 304.329. The molecule also displayed a B-score functional assay on human NTCP [2] (setting [11]) of 0.027.

As to `Clc1ccc(C(Cn2ccnc2)OCc2csc3c(Cl)cccc23)c(Cl)c1` (stereo not drawn) [Sertaconazole nitrate], the B-score binding assay on human NTCP [1] (setting [6]) came out at 0.814. For the same molecule, the B-score functional assay on human NTCP [2] (setting [7]) is -0.094. At human NTCP [2] (setting [8]), this molecule registered a Ranking score of 730.855.

Regarding `CNC(=C[N+](=O)[O-])NCCSCc1csc(CN(C)C)n1` [Nizatidine], the B-score binding assay on human NTCP [1] (setting [3]) amounted to 1.375. The B-score functional assay on human NTCP [2] (setting [4]) worked out at 0.271. Also, the Ranking score at human NTCP [2] (setting [5]) came to 960.129.

At human NTCP [1] (setting [3]), `C[C@@]1(O)CCOC(=O)C1` [Mevalonic-D, L acid lactone] registered a B-score binding assay of 0.161. Besides, at human NTCP [2] (setting [4]), the B-score functional assay is 0.673. For the same molecule, at human NTCP [2] (setting [5]), the Ranking score is reported as 868.822.

In the case of `CC(C)(Oc1ccc(CCNC(=O)c2ccc(Cl)cc2)cc1)C(=O)O` [Bezafibrate], the B-score binding assay at human NTCP [1] (setting [9]) amounted to 0.184. For the same molecule, the Ranking score at human NTCP [2] (setting [10]) was 430.871. Besides, at human NTCP [2] (setting [11]), the B-score functional assay is reported as -1.123.

Regarding `CC1(C)O[C@@H]2C[C@H]3[C@@H]4C[C@H](F)C5=CC(=O)CC[C@]5(C)[C@H]4[C@@H](O)C[C@]3(C)[C@]2(C(=O)CO)O1` [Flurandrenolide], the B-score binding assay at human NTCP [1] (setting [9]) is on record as -0.083. Besides, the Ranking score at human NTCP [2] (setting [10]) was 407.676. Moreover, the B-score functional assay at human NTCP [2] (setting [11]) was -0.782.
